Source: patent US20260167614A1, “IDENTIFICATION OF SMALL MOLECULES THAT RECRUIT AND ACTIVATE RNASE L” (UNIVERSITY OF FLORIDA RESEARCH FOUNDATION, INCORPORATED, priority 2022, published 2026)

What was measured:
pre-miR-21 = assay: Binding affinity measurement by intrinsic fluorescence; conditions: WT pre-miR-21
Description: Binding Affinity Measurements. Binding assays were completed as previously described.8 Briefly, WT pre-miR-21 (5′-[…]-3′) or a mutant pre-miR-21 with the A-bulge and U-bulges replaced with base pairs (5′-[…]-3′) was folded in 1× Assay Buffer (8 mM Na2HPO4, pH 7.0, 185 mM NaCl, and 1 mM EDTA) by heating at 95° C. for 1 min followed by cooling on ice for 10 min. After cooling, BSA was added to a final concentration of 40 μg/mL. RiboTAC 7 was then added to the solution to a final concentration of 0.5 μM. The RNA solution was serial diluted with 1× Assay Buffer supplemented with 40 μg/mL BSA and 0.5 μM of 7. The solutions were incubated in the dark for 30 min at room temperature before being transferred to a black 384-well plate (Corning 4514, low-volume, non-binding) Fluorescence intensity was measured using a Tecan infinite M1000 Pro (Gain: 100) with excitation wavelength of 380 nm and emission wavelength of 425 nm. Binding affinity was calculated using Equation 1, as previously described:8
where I and I0 are the measured fluorescence intensity of compound with or without RNA, respectively, Δε is the difference between the fluorescence intensity with infinite concentration of RNA versus without RNA, [FL]0 and [RNA]0 are the concentrations of small molecule and RNA, respectively, and Kd is the dissociation constant.

PDCD4 = assay: Western blot of PDCD4; assay type: cell-based
Description: RiboTAC 7 was then assessed for its ability to affect protein levels by deactivation of a miR-21-mediated cancer circuit, i.e., derepression of PDCD4. […] Proteome-wide analysis was also completed to study the effects of 7 and a locked nucleic acid (LNA) oligonucleotide that targets miR-21-5p on the proteome. The concentrations tested of both provided similar activity (5 nM of 7 and 100 nM of the LNA), as assessed by their effect on PDCD4 levels, ˜40% enhancement. […] Neither modality affected proteins that are direct targets of miRNA let-7b-5p, further supporting that RiboTAC 7 is selectively deactivating a miR-21-mediated cancer circuit in cells (FIG. 11C-11D).
Quantification of Protein Levels by Western Blotting. MDA-MB-231 cells were treated as described in “Cell Culture.” After treatment, the medium was removed, and the cells were washed with 1× Dulbecco's phosphate-buffered saline (DPBS). Total protein was extracted using Mammalian Protein Extraction Reagent (M-PER, Thermo Scientific) according to the manufacturer's protocol. Protein concentration was measured using a Pierce Micro BCA Protein Assay kit (Fisher Scientific). […]
Western blots were quantified using ImageJ (National Institutes of Health).^12 Protein expression was normalized to […] abundance. […]

MCF-10A cells = assay: Boyden chamber invasion assay, MCF-10A with mutant pre-miR-21; assay type: cell-based; conditions: Dovitinib-binding site mutated
Description: The effect of the RiboTAC on a miR-21-associated invasive phenotype was next assessed. Treatment with 5 μM of 7 reduced the invasiveness of MDA-MB-231 cells, by ˜30% (p<0.05) (FIG. 4E-F). […] While forced expression of a mutant pre-miR-21 in which the Dovitinib-binding site is mutated also produced an invasive phenotype, the cells were insensitive to treatment with 7 (FIG. 12).
MCF-10A cells were first transfected with either a plasmid expressing pre-miR-21 (Addgene; catalog #21114) or a plasmid encoding a pre-miR-21 mutant (custom purchased from GenScript USA, Inc, FIG. 8) using jetPRIME (Polyplus), per the manufacturer's protocol (3.2 μg of plasmid per 60 mm dish). After transfection, cells (50,000 per insert) were seeded into the hanging inserts in serum free growth medium, with or without compound (0.1% final DMSO concentration). The assay was then completed as described for the MDA-MB-231 cells.

## CNC(=O)[C@H](c1ccccc1)N(C)Cc1ccc(-c2cccc(-c3sccc3NC(=O)CCOCCOCCOCCC(=O)NCCN3CCN(c4ccc5nc(-c6c(N)c7c(F)cccc7[nH]c6=O)[nH]c5c4)CC3)c2)cc1 [RiboTAC 7, (S)—N-(2-(4-(2-(4-amino-5-fluoro-2-oxo-1,2-dihydroquinolin-3-yl)-1H-benzo[d]imidazol-6-yl)piperazin-1-yl)ethyl)-3-(2-(2-(3-((2-(4′-((methyl(2-(methylamino)-2-oxo-1-phenylethyl)amino)methyl)-[1,1′-biphenyl]-3-yl)thiophen-3-yl)amino)-3-oxopropoxy)ethoxy)ethoxy)propanamide]
pre-miR-21
  Kd: 4.6 ± 2.1 µM
PDCD4; 5 nM of 7 and 100 nM of the LNA as printed
  enhancement of PDCD4 levels: ~40%
PDCD4; 5 μM, CRISPR-Control sgRNA MDA-MB-231 cells
  increase of PDCD4 protein levels: ~40%
MCF-10A cells
  invasive phenotype induced by forced expression of mutant pre-miR-21: insensitive
